In PMC9783573, “Introduction of a SiFA Moiety into the D-Glutamate Chain of DOTA-PP-F11N Results in Radiohybrid-Based CCK-2R-Targeted Compounds with Improved Pharmacokinetics In Vivo” (Pharmaceuticals, 2022):
Read-outs that look alike come from different tables or passages of the source. Non-standard residues stand in square brackets, D forms with d. Residues, ends and D or L forms follow the SMILES beside them. *: point of attachment. X1 = O=C(O)CN1CCN(CC(=O)O)CCN([C@H](CCC(=O)*)C(=O)O)CCN(CC(=O)O)CC1; Benzoyl(4-SiFtBu2) = CC(C)(C)[Si](F)(c1ccc(C(=O)*)cc1)C(C)(C)C; Nle = CCCC[C@H](N)C(=O)O; dDap = NC[C@@H](N)C(=O)O

Tests used:
[1] = Lipophilicity, n-octanol/PBS (pH 7.4) distribution coefficient; format: physicochemical
Method: Lipophilicity (depicted as octanol-phosphate-buffered saline solution (PBS, pH = 7.4) distribution coefficient, logD7.4) was determined via dissolving the ^177Lu-labelled peptide (approx. 1 MBq) in a mixture (1/1, v/v) of n-octanol and PBS. The suspension was vortexed in a reaction vial (1.5 mL) for 3 min at RT and the vial was centrifuged at 9000× […] for 5 min (Biofuge 15, Heraus Sepatech GmbH, Osterode, Germany). 200 μL aliquots of both layers were measured separately in a γ-counter (Perkin Elmer, Waltham, MA, USA). The experiment was repeated at least five times.

CCK-2R = molecular target: T1, CCK-2R (Rattus norvegicus, UniProt P30553); experiment: CCK-2R-mediated internalisation and total cell uptake on AR42J cells; format: cell-based; conditions: for Total cell uptake (%) / Internalisation Values (%): % of applied activity, AR42J cells, 37 °C, 0.25 pmol/well; for Internalisation Values (%): corrected for non-specific binding; for Internalisation Values (% of reference): % of the reference [177Lu]Lu-DOTA-PP-F11N
T1 construct: CCK-2R expressing rat pancreatic cancer cells AR42J (CLS GmbH, Eppelheim,; host or cells: AR42J rat pancreatic cancer cells
T1 sequence (P30553 1-452): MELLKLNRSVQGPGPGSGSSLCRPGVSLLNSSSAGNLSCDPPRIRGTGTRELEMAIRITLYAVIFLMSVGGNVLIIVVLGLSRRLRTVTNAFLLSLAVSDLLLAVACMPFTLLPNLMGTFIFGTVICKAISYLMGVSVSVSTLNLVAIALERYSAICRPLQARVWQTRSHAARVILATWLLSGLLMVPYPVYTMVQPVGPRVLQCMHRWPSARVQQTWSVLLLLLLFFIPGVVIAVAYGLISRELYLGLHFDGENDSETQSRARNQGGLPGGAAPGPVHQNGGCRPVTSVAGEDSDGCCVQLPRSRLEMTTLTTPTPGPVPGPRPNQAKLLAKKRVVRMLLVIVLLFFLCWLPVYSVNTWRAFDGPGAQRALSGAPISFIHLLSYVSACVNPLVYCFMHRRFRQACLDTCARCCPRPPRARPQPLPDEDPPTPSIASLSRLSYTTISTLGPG
Method: Figure 3 (a) CCK-2R-mediated internalisation ([…]) on AR42J cells as percent (%) of the applied activity (incubation at 37 °C for 1, 2, 4 and 6 h, RPMI 1640, 5 mM L-Gln, 5 mL non-essential amino acids (100×), 10% FCS + 5% BSA (v/v), 3.0 × 10^5 cells/mL/well). (b) CCK-2R mediated internalisation (% of the reference [^177Lu]Lu-DOTA-PP-F11N) of [^177Lu]Lu-CP04 (grey), [^177Lu]Lu-(R)-DOTAGA-rhCCK-9 (red) and [^177Lu]Lu-(R)-DOTAGA-rhCCK-16 (green) after incubation for 6 h.
Internalisation studies of the ^177Lu-labelled conjugates (0.3 pmol) were performed on AR42J cells (3.0 × 10^5 cells per 1 mL/well) at 37 °C for 1, 2, 4 and 6 h (n = 3). Data were corrected for non-specific binding (competition by 10^−4 M [^natLu]Lu-DOTA-PP-F11N).
Cell Culture. CCK-2R expressing rat pancreatic cancer cells AR42J (CLS GmbH, Eppelheim, Germany) were cultivated in monolayers in CELLSTAR ® cell culture flasks acquired from Greiner Bio-One GmbH (Frickenhausen, Germany) at 37 °C in a humidified atmosphere (5% CO2) using a HERAcell 150i-Incubator (Thermo Fisher Scientific Inc., Waltham, United States). As nutrient medium RPMI 1640 medium, supplemented with 5 mM L-Gln 5 mL non-essential amino acids (100×) and 10% FCS, was used. Furthermore, a Dulbecco’s PBS solution with 0.1% EDTA (v/v) was applied to detach the cells for cell passaging. The detached cells were counted using a Neubauer hemocytometer ( Paul Marienfeld, Lauda-Königshofen, Germany). In addition, all operations under sterile conditions were accomplished using a MSC-Advantage safety workbench (Thermo Fisher Scientific Inc., Waltham, United States). […]
Internalisation Studies. For the determination of the internalisation kinetics of the various peptides, AR42J cells (3.0 × 10^5 cells/well) were seeded into polylysine coated 24-well plates adding 1 mL of nutrient medium. Afterwards, the cells were incubated for 24 ± 2 h at 37 °C in a humidified atmosphere […]
On the day of the experiment, the medium was removed, and each well was washed with nutrient medium (300 µL). Afterwards 200 µL of nutrient medium, 25 µL of the 177Lu-labeled peptide (0.3 pmol, n = 6) and either 25 µL of nutrient medium for internali sation studies (n = 3) or 25 µL of [natLu]Lu-DOTA-PP-F11N ([…]) for competition studies (n = 3) were added. Thereafter, the assay was incubated for various time points (1, 2, 4and 6 h) at 37 °C in a humidified atmosphere (5% CO2). After incubation, the cells were put on ice for at least 1 min to stop internalisation kinetics and the supernatant was collected. Then, the cells were washed with an ice-cold nutrient medium (300 µL) and both fractions were unified. For the acid wash, 300 µL of an ice-cold glycine buffer ([…] lysis of the cells with NaOH (300 μL, 1 N) for 15 min, the respective wells were washed with NaOH (300 μL, 1 N) and both fractions were unified. The radioactivity of the supernatant, the acid wash and the lysed fractions were quantified using a γ-counter.

[2] = 177Lu-labelled peptide, n-octanol/PBS pH 7.4, read-out: logD7.4

| logD ([1]; pH 7.4) | SMILES | logD [1, 2] | Total cell uptake (%) (CCK-2R; 1 h) | Internalisation Values (%) (CCK-2R; 1 h) | Total cell uptake (%) (CCK-2R; 2 h) | Internalisation Values (%) (CCK-2R; 2 h) | Total cell uptake (%) (CCK-2R; 4 h) | Internalisation Values (%) (CCK-2R; 4 h) | Total cell uptake (%) (CCK-2R; 6 h) | Internalisation Values (%) (CCK-2R; 6 h) | Internalisation Values (% of reference) (CCK-2R; 6 h) |
| --- | --- | --- | --- | --- | --- | --- | --- | --- | --- | --- | --- |
| – | CCCC[C@H](NC(=O)[C@H](Cc1c[nH]c2ccccc12)NC(=O)CNC(=O)[C@H](Cc1ccc(O)cc1)NC(=O)[C@H](C)NC(=O)[C@@H](CCC(=O)O)NC(=O)[C@@H](CCC(=O)O)NC(=O)[C@@H](CCC(=O)O)NC(=O)[C@@H](CCC(=O)O)NC(=O)[C@@H](CCC(=O)O)NC(=O)[C@@H](CCC(=O)O)NC(=O)[C@@H](CCC(=O)O)NC(=O)[C@@H](CCC(=O)O)NC(=O)[C@@H](CNC(=O)c1ccc([Si](F)(C(C)(C)C)C(C)(C)C)cc1)NC(=O)CC[C@H](C(=O)O)N1CCN(CC(=O)O)CCN(CC(=O)O)CCN(CC(=O)O)CC1)C(=O)N[C@@H](CC(=O)O)C(=O)N[C@@H](Cc1ccccc1)C(N)=O [[nat/177Lu]Lu-(R)-DOTAGA-rhCCK-9, metal not drawn] (X1-[dDap](Benzoyl(4-SiFtBu2))[dE][dE][dE][dE][dE][dE][dE][dE]AYGW[Nle]DF-NH2) | -2.84 ± 0.04 | 2.25 ± 0.23% | 2.08 ± 0.12% | 3.46 ± 0.56% | 3.44 ± 0.55% | 8.31 ± 0.59% | 8.01 ± 0.53% | 13.4 ± 0.7% | 13.2 ± 0.5% | 65.7 ± 2.5 % of reference |
| – | CCCC[C@H](NC(=O)[C@H](Cc1c[nH]c2ccccc12)NC(=O)CNC(=O)[C@H](Cc1ccc(O)cc1)NC(=O)[C@H](C)NC(=O)CC[C@@H](NC(=O)CC[C@@H](NC(=O)CC[C@@H](NC(=O)CC[C@@H](NC(=O)CC[C@@H](NC(=O)CC[C@@H](NC(=O)[C@@H](CNC(=O)c1ccc([Si](F)(C(C)(C)C)C(C)(C)C)cc1)NC(=O)CC[C@H](C(=O)O)N1CCN(CC(=O)O)CCN(CC(=O)O)CCN(CC(=O)O)CC1)C(=O)O)C(=O)O)C(=O)O)C(=O)O)C(=O)O)C(=O)O)C(=O)N[C@@H](CC(=O)O)C(=O)N[C@@H](Cc1ccccc1)C(N)=O [[nat/177Lu]Lu-(R)-DOTAGA-rhCCK-16, metal not drawn] | -2.54 ± 0.05 | 8.37 ± 0.07% | 7.63 ± 0.13% | 14.4 ± 1.3% | 14.0 ± 1.3% | 23.6 ± 2.8% | 23.2 ± 2.7% | 32.8 ± 2.3% | 32.2 ± 2.1% | 135 ± 9 % of reference |
| -3.8 ± 0.1 | CSCC[C@H](NC(=O)[C@H](Cc1c[nH]c2ccccc12)NC(=O)CNC(=O)[C@H](Cc1ccc(O)cc1)NC(=O)[C@H](C)NC(=O)[C@@H](CCC(=O)O)NC(=O)[C@@H](CCC(=O)O)NC(=O)[C@@H](CCC(=O)O)NC(=O)[C@@H](CCC(=O)O)NC(=O)[C@@H](CCC(=O)O)NC(=O)[C@@H](CCC(=O)O)NC(=O)CN1CCN(CC(=O)O)CCN(CC(=O)O)CCN(CC(=O)O)CC1)C(=O)N[C@@H](CC(=O)O)C(=O)N[C@@H](Cc1ccccc1)C(N)=O [[nat/177Lu]Lu-CP04, metal not drawn, reference compound] | – | 6.00 ± 0.42% | 5.16 ± 0.44% | 10.0 ± 0.4% | 9.33 ± 0.36% | 16.5 ± 0.9% | 15.4 ± 0.7% | – | 20.5 ± 0.5% | 91.6 ± 2.4 % of reference |
| – | CCCC[C@H](NC(=O)[C@H](Cc1c[nH]c2ccccc12)NC(=O)CNC(=O)[C@H](Cc1ccc(O)cc1)NC(=O)[C@H](C)NC(=O)[C@@H](CCC(=O)O)NC(=O)[C@@H](CCC(=O)O)NC(=O)[C@@H](CCC(=O)O)NC(=O)[C@@H](CCC(=O)O)NC(=O)[C@@H](CCC(=O)O)NC(=O)[C@@H](CCC(=O)O)NC(=O)CN1CCN(CC(=O)O)CCN(CC(=O)O)CCN(CC(=O)O)CC1)C(=O)N[C@@H](CC(=O)O)C(=O)N[C@@H](Cc1ccccc1)C(N)=O [[nat/177Lu]Lu-DOTA-PP-F11N, metal not drawn, reference compound] | -4.75 ± 0.07 | 7.03 ± 1.45% | 6.44 ± 0.32% | 10.6 ± 1.5% | 10.1 ± 0.4% | 18.5 ± 2.5% | 17.5 ± 1.0% | 23.5 ± 1.4% | 22.4 ± 0.6% | – |
